Measured values taken from a melting point compilation (Tetko et al.; mined from patent text by program, amines drawn as free bases though some values may be those of a salt).

| Compound | melting point [°C] |
| --- | --- |
| c1ccc(CCCn2c(-c3ccc4c(c3)OCO4)nc3ccccc32)cc1 | 99.8 to 100 |
| Cc1cc(-n2cnnc2)cc2ccc(=O)[nH]c12 | 369 to 371 |
| N#CC(c1cccc(F)c1)N1CCOCC1 (stereo not drawn) | 74 to 75 |
| CCCc1c(OCCCCCOc2cccc3cc(C(=O)O)oc23)ccc2c1OCCC2=O | 79.5 to 81 |
| CN1CCN(c2ccc(-c3nc4c(N[C@H]5[C@@H](C(N)=O)[C@@H]6C=C[C@H]5C6)ccnc4[nH]3)cc2)CC1 | 220 to 222 |
| COc1ccc(C#Cc2ccc(OC3CN4CCC3CC4)cc2)cc1 (stereo not drawn) | 112 to 115 |
| CN1C[C@H](CCN2CCC(O)(c3ccc(Cl)cc3)CC2)C=C2c3cccc4[nH]cc(c34)C[C@H]21 | 154 to 157 |
| Nc1nc(NC2Cc3ccccc3N(Cc3ccc(F)cc3F)C2)c2cn[nH]c2n1 (stereo not drawn) | 110 to 114 |
| Cc1c2sc3ccccc3nc-2c2c(O)cccc2c1=O | 226 to 228 |
| C1=C(c2cccc3ccccc23)CCN(Cc2ccccc2)C1 | 72 to 74 |
| O=C(Cc1cc(Cl)cc(Cl)c1)NC1N=C(C2CC2)c2ccccc2N(CC(F)(F)F)C1=O (single isomer, unassigned; (+)) | 152 to 153 |
| Cn1c(O)nc2cc(Cn3ccnc3)ccc21 | 207 |
| COC1(c2ccc(F)cc2)CCC(=O)CC1 | 57 to 59 |
| S=C(Cl)c1cc(C(Cl)(Cl)Cl)c(Cl)cc1Cl | 79 to 81 |
| O=C1NC=N[C@H]2CCCC[C@@H]12 (relative stereo) | 133 to 134 |
| Cc1c(O)c(C(C)(C)C)cc2c1CCC1C2CCC2(C)C(=O)CCC12 (stereo not drawn) | 190 to 192 |
| Cc1cccc(NC(=O)NC2C(=O)N(CC34CC5CC(CC(C5)C3)C4)c3ccccc3N(c3ccccc3)C2=O)c1 (stereo not drawn) | 244 to 246 |
| COc1ccc(N2CCN(c3ccc(NC(=O)Oc4ccccc4)cc3)CC2)cc1 | 204 |
| O=C1Nc2cccc(Br)c2C(=O)N2CC[C@@H]12 | 182 to 183 |
| CN(C)C=C1CN=C(c2ccccc2)c2ccccc2C1=O | 131 to 133 |
| CON(C)C(=O)Nc1ccc(OCCc2ccc(C(C)(C)C)cc2)cc1 | 14 to 15 |
| CC(=C(c1ccc(F)cc1)c1ccc(F)cc1)P(c1ccccc1)c1ccccc1 | 88 to 90 |
| Fc1ccc(Cn2c(NC3CCN(CCNCCc4c[nH]c5ccccc45)CC3)nc3ccccc32)cc1 | 170 |

Next, values leading:

| melting point [°C] | Compound |
| --- | --- |
| 285 to 288 | O=C1c2ccccc2CN1[C@@H]1c2cc([N+](=O)[O-])ccc2OC(CF)(CF)[C@H]1O (relative stereo) |
| 85 to 86 | O=CN(O)[C@@H](CCCO)CS(=O)(=O)c1ccc(Oc2ccc(OC(F)(F)F)cc2)cc1 |
| 184 to 185 | COc1ccc(C(=O)Nc2cccc(Cl)c2)cc1NC(=S)Nc1ccc(F)cc1 |
| 166 to 168 | O=C(Nc1nc(O)cc(-c2ccccc2)n1)C(F)(F)F |
| 94 to 95 | O=C(Cl)Cc1ccccc1NS(=O)(=O)C(F)(F)F |
| 92 to 94 | Fc1ccc(CNc2ccc(-n3nc(C(F)(F)F)cc3C(F)(F)F)cc2)cc1 |
| 132 to 139 | NS(=O)(=O)c1ccc(-c2c(-c3ccccc3)noc2CC(=O)C(F)(F)F)cc1 |
| 86 to 87 | O=C(c1ccccc1Cl)c1cc(Cl)cc(Br)c1I |
| 81 to 82.5 | COc1ccc2c(c1)C(=O)C(=O)N2CCN(C(C)C)C(C)C |
| 160 to 164 | CCOC(=O)C(Cl)=Cc1cc(Cl)ccc1-n1c(=O)c(Cl)c(C(F)(F)F)n(C)c1=O |
| 127 to 129 | Cn1c(=O)cnn(-c2cc(OCC#CBr)c(Cl)cc2F)c1=O |
| 303 to 306 | Cc1nnc(C)n1NC(=N)c1ccc(Cl)cc1 |
| 235 to 238 | Nc1ccccc1S(=O)(=O)c1cc(C(=O)O)ccc1Cl |
| 128 to 132 | COc1ccc(CN2C(=O)CN(Cc3ccc4c(OC)ccnc4c3)S2(=O)=O)c(OC)c1 |
| 195 to 210 | COC(=O)c1ccc(-c2nc3cc(C(=O)OC)ccc3o2)cc1 |
